# Patent US20060223050A1, “Therapeutic platelets and methods” (The Regents of the University of California Office of …, priority 2003, published 2006)
# Where “and” joins values, the source holds several entries; their conditions need not be identical. Equal values may be shown once.
# Columns and labels:
# erythrocyte membranes = assay: FTIR membrane phase transitions of erythrocytes
# human platelets [1] = assay: Loading of platelets with trehalose (anthrone quantification); format: cell-based; conditions: 37° C., from 0 to 2 hours
# Protocol: Washing of Platelets. Platelet concentrations were obtained from the Sacramento blood center or from volunteers in our laboratory. Platelet rich plasma was centrifuged for 8 minutes at 320×g to remove erythrocytes and leukocytes. The supernatant was pelleted and washed two times (480×g for 22 minutes, 480×g for 15 minutes) in buffer A (100 MM NaCl, 10 MM KCl, 10 mM EGTA, 10 mM imidazole, pH 6.8). Platelet counts were obtained on a Coulter counter T890 (Coulter, Inc., Miami, Fla.).
# Loading of Platelets with Trehalose. Washed platelets in a concentration of 1-2 10^9 platelets/ml were incubated at various temperatures in the presence of 1-20 mg/ml trehalose. […] The amount of trehalose in the platelets was quantified using the anthrone reaction (Umbreit et al., Mamometric and Biochemical Techniques, 5th Edition, 1972). […] Then the samples were cooled on ice and the absorbance was measured at 620 nm on a Perkin Elmer spectrophotometer. The amount of platelet associated trehalose was determined using a standard curve of trehalose.
# Quantification of Trehalose and LYCH Concentration. Uptake was calculated for each sample as micrograms of trehalose or LYCH per platelet. The internal trehalose concentration was calculated assuming a platelet radius of 1.2 μm and by assuming that 50% of the platelet volume is taken up by the cytosol (rest is membranes). […]
# human platelets [2] = assay: Stability of platelets during trehalose incubation (microscopy, flow cytometric analysis); format: cell-based
# Protocol: The uptake of trehalose is linear in the range from 0 to 30 mM external trehalose. The highest internal trehalose concentration is obtained with 50 mM external trehalose. At higher concentrations than 50 mM the internal trehalose concentration decreases again. Even when the loading buffer at these high trehalose concentrations is corrected for isotonicity by adjusting the salt concentration, the loading efficiency remains low. Platelets become swollen after 4 hours incubation in 75 mM trehalose.
# The stability of the platelets during a 4 hours incubation period was studied using microscopy and flow cytometric analysis. […] No signs of microvesicle formation could be observed after 4 hours incubation, as can be judged by the stable relative proportion of microvesicle gated cells (less than 3%). The formation of microvesicles is usually considered as the first sign of platelet activation (Owners et al., Trans. Med. Rev., 8, 27-44, 1994). Characteristic antigens of platelet activation include: glycoprotein 53 (gp53, a lysosomal membrane marker), PECAM-1 (platelet endothelial cell adhesion molecule-1, an alpha granule constituent), and P-selection (an alpha granule membrane protein).
# [3] = State diagram (glass transition temperature vs water content) by differential scanning calorimeter; format: physicochemical; conditions: FIG. 40, assuming sample temperature of −50° C.
# Text: In another embodiment of the invention, it has been discovered that protein alters the physical properties of a preservative solution. More specifically, it has been discovered that the protein albumin alters the physical properties of the oligosaccharide trehalose solution as broadly illustrated in FIG. 40, which are graphs representing state diagrams (e.g., glass transition temperature vs. water content) for trehalose:water mixtures and for trehalose-albumin(1/1, wt/wt):water mixtures. A state diagram is a measure of the glass transition temperatures (Tg) for the respective mixtures (i.e., the various preservative:water mixtures and the various preservative-protein:water mixtures). The state diagrams broadly illustrated in FIG. 40 were obtained by respectively freeze-drying trehalose alone and freeze-drying a 1:1 (wt:wt) trehalose:albumin solution, and then adding back known amounts of water to the respective freeze-dried solutions. The glass transition temperatures for the trehalose:water solution and for the trehalose/albumin:solution were measured by a differential scanning calorimeter with conventional methods.
# mesenchymal stem cells = assay: Growth curves of mesenchymal stem cells with 90 mM trehalose; format: cell-based, human
# Protocol: Growth Curves. MSCs were plated into 12-welled plates at approximately the same seeding density used for T-185 flasks in standard Osiris protocols (5900 cells/cm^2 with fluid volume of 0.189 mL/cm^2). Three wells for each condition at each time point were trypsinized and counted. Data for cells grown in the presence of trehalose were lost for the first two time points. FIG. 13 is a graph illustrating growth curves for the mesenchymal stem cells in the presence or absence of 90 mM trehalose with the open triangle data representing cells grown in standard medium for 24 hours, after which 90 mM trehalose was added.
# [4] = erythrocytes incubated 37° C. one hour with MβCD
compound,measurement,setting,value
CC(C)c1c(C(=O)Nc2ccccc2)c(-c2ccccc2)c(-c2ccc(F)cc2)n1CC[C@@H](O)C[C@@H](O)CC(=O)O [LIPITOR],total wavenumber excursion,"erythrocyte membranes; from −5 to 45° C., erythrocytes of a donor who used LIPITOR (other donors 0.8)",~1.5 cm⁻¹
methyl-β-cyclodextrin [MβCD],"High Transition, Cooperativity",erythrocyte membranes; [4],0.091 ± 0.020 cm^−1/° C.
same,"High Transition, Transition Temperature",erythrocyte membranes; [4],35.4 ± 1.5 °C
same,"Low Transition, Cooperativity",erythrocyte membranes; [4],0.051 ± 0.004 cm^−1/° C.
same,"Low Transition, Transition Temperature",erythrocyte membranes; [4],15.3 ± 0.8 °C
same,"Middle Transition, Cooperativity",erythrocyte membranes; [4],0.095 ± 0.015 cm^−1/° C.
same,"Middle Transition, Transition Temperature",erythrocyte membranes; [4],25 °C and 26.0 ± 0.8 °C
same,wavenumber excursion of lipid CH2 band,"erythrocyte membranes; from −5 to 45° C., after cholesterol removal (control 0.7)",2.9 cm⁻¹
OC[C@H]1O[C@H](O[C@H]2O[C@H](CO)[C@@H](O)[C@H](O)[C@H]2O)[C@H](O)[C@@H](O)[C@@H]1O [trehalose],trehalose uptake,human platelets [1],2.8×10^−11 mol/m^2s
same,morphological changes,"human platelets [2]; 4 hours at 37° C., 25 mM external trehalose",No morphological changes
same,platelet morphology,human platelets [2]; 4 hours incubation at 37° C. in 75 mM trehalose,swollen
same,relative proportion of microvesicle gated cells,"human platelets [2]; 4 hours incubation, flow cytometry",less than 3%
same,water content at which sample enters the glassy state,[3],below 0.15 gram H2O/gram dry wt
same,effect on growth of the cells,mesenchymal stem cells; after the third day,cell count started to drop significantly
same,effect on growth of the cells,mesenchymal stem cells; up to the third day,did not interfere with growth of the cells
